Test results taken from patent US20200345746A1, “Oxazine Derivative for Use in the Prevention of Alzheimer's Disease in at Risk Patents” (Novartis AG, priority 2016, published 2020).
Read-outs that look alike come from different tables or passages of the source.

How the values were obtained:
Aβ42 = assay: First-in-human study: Aβ42 in CSF; type: in vivo; details: 2 weeks
Description: The purpose of this study was to determine the single and multiple maximum tolerated dose of Compound 1 and to assess the pharmacokinetic/pharmacodynamic (PK/PD) relationship using Aβ in CSF as primary PD biomarker.
In the completed first-in-human and 3-month dose-ranging safety and tolerability clinical studies described in Examples 5 and 6, Aβ concentrations in CSF were obtained by means of lumbar punctures before the first dose (baseline) and respectively after 2 weeks and 3 months of multiple dosing. ApoE4 genotype also was obtained in the subjects who consented. The percent change from baseline in Aβ40 and Aβ42 concentrations was calculated in subjects who took the study treatment and had no major protocol deviation with potential impact on the evaluation of the pharmacodynamic effect. Tables 18 to 21 below provide summary statistics of the percent change from baseline by treatment group and ApoE genotype (E4 heterozygotes versus E4 non-carriers). Only one subject with CSF data was E4 homozygote (from the 3-month dose-ranging safety and tolerability study).

[1] = in vivo; for AUCblood (AUC0-24 h): po
Description: Blood samples were used to analyze whole-blood compound levels and were obtained either from tail-vein during the in-life part into EDTA tubes (CB300, Sarstedt, Germany) or from trunk blood at the day of necropsy into EDTA Eppendorf tubes (Milian S A, CatNoTOM-14, Fisher Scientific, Wohlen, Switzerland), or into serum tubes (CB300Z, Sarstedt, Nümbrecht, Germany).
Brain was removed immediately after decapitation, rinsed with saline and sectioned sagitally down the midline. The left half of the cerebellum was used to analyze compound level and was placed into a glass tube (Chromacol, 125×5-SV T051, Welwyn Garden City, United Kingdom), weighed and frozen in dry-ice, the left half of the forebrain (without olfactory bulb) was used for Aβ analysis, and was frozen on a metal plate on dry ice and placed into protein Lo-bind tube (003 0108.116, Eppendorf, Hamburg, Germany).
Ventral and dorsal skin were taken to analyze compound level, weighed and frozen on dry-ice.
Brain samples were mixed with 2 volumes of KH2PO4 buffer and homogenized using the Covaris® device. Skin samples were mixed with approx. 6-fold volumes of methanol/water and homogenized using a Precellys tube. Either 30 μL of blood, brain or skin homogenate were spiked with a structurally related internal standard and subsequently mixed with an at least 6-fold excess volume acetonitrile for protein precipitation. The supernatant was injected directly into the LC/MS/MS system for analysis.
For tissue exposure, only data at 4 and 24 h were available.

[2] = Body weight, chronic 8-week dosing in wild-type mice; type: in vivo, mouse; details: C57BL/6 mice, 8 weeks chronic treatment
Description: Compound 1 and NB-360 were formulated as a suspension. […] Vehicle: […] in 0.5% methylcellulose in water.
Body weight was taken 3 times per week (Monday, Wednesday, Friday). Subjective scoring of any hair colour changes was performed once weekly (Wednesday). Scores (% of body with grey fur): 0: No change; 1: Spots; 2: >30%; 3: >50%; 4: >75%; 5: 100%. Animals were photo-documented when fur color change was observed. Final fur color scoring was performed blinded and by a person not involved in the study.

GFAP positive astrocytes = assay: Activated astrocytes in APP23 mice (GFAP positive area); type: in vivo, mouse; details: for Distal GFAP+ area / Proximal GFAP+ area / Total GFAP+ area / non-plaque associated GFAP+ area / plaque-associated GFAP+ area: normalized to total area (100 * mean ± SEM)
Description: Amyloid plaques were stained using a rabbit anti-Aβ primary antibody which recognizes the C-terminal part of the amyloid peptide (the antibody was raised as described in Schrader-Fischer G, Paganetti P A, 1996; Schrader-Fischer G et al., 1997). Activated astrocytes were detected using a commercial rabbit anti-GFAP (reference Z0334 from Dako Schweiz GmbH, Baar, Switzerland).
All study animals were used and brain tissue sections of 3 micrometers were freshly cut and collected on SuperFrost+ slides. The tissues sections were de-paraffinized and rehydrated under solvent-free conditions (EZprep solution) followed by antigen retrieval (demasking) performed by heat retrieval cycles for 32 min in an EDTA based buffer (CC1 solution). Subsequently, slides were blocked for 4 min using the DISCOVERY Inhibitor (reference 07017944001 (Roche)). The primary antibody diluted at 1/20,000 in antibody diluent was manually added on tissue sections and incubated for 1h at room temperature. A short post-fixation (glutaraldehyde at 0.05%) was performed before applying the multimer UltraMap-anti Rabbit HRP ready to use antibody (reference 05269717001) for 16 min.
Detection was performed using the DISCOVERY FITC® following the manufacturer's recommendations. Slides were then heat denaturated at 92° C. for 20 min before a manual application of the second primary antibody (anti-GFAP diluted at 1/2,000) and incubated for 1 h. UltraMap-anti-Rabbit HRP antibody was used again for 20 min to detect GFAP in combination with the DISCOVERY Rhodamine kit (reference 07259883001).
The slides were washed and mounted using Prolong® Gold antifade reagent (reference P36931, ThermoFisher, Switzerland) and further scanned with the Hamamatsu slide scanner instrument (NanoZoomer 2.0 HT, scanning software NDP-Scan Vers. 2.5, Hamamatsu Photonics France, Swiss Office, Solothurn, Switzerland) at the 40× objective. The scanning settings were as follows: the exposure time with the DAPI filter was set at 57 ms as well as for the FITC filter. The exposure time for the TRITC filter (detection of Rhodamine) was set at 14.2 ms.
For the beta-amyloid plaque and neuroinflammation analysis, the following sequence of steps was performed: • Slides were scanned with Hamamatsu Nanozoomer at 40× magnification. For each fluorescence labelling (DAPI, FITC and TRITC), a separate image was created • Manually outline ROIs (regions of interest) for defining cortex in brain sections for Aβ plaque assessment on the green FITC channel image, then use the resulting outline also for the other two channel images (copy resulting xml files) • Run the in-house developed ImageScope (V12.1.0.5029, Aperio Inc., USA) plug-in for creation and export of *.tif image tiles (at 10× magnification) for each of the 3 fluorescence channels
Image Batch Processing: • Obtain the combined true color image (DAPI, FITC, TRITC) for each section through accessing each individual fluorescence channel image • Segmentation of valid sample (within outlined ROI) from black unstained background • Apply adaptive thresholding technique for segmentation of objects in green channel image
(FITC-labeled Aβ plaques) • Separation of touching objects for correct subsequent individual object analysis after elimination of too small debris showing signal in the green (FITC) channel • Segmentation of TRITC-labeled objects in red channel (specific for GFAP or Iba1 staining indicating astrocytes or microglia) through morphological tophat transformation and thresholding • Feature based object classification […]

Q: Which “Aβ42 % change from baseline, Mean (SD)” value (Aβ42; 10 mg, E4 heterozygotes) does the source give for `C[C@@]1(c2nc(NC(=O)c3ncc(C(F)(F)F)cc3Cl)ccc2F)CO[C@@](C)(C(F)(F)F)C(N)=N1` [Compound 1, N-(6-((3R,6R)-5-amino-3,6-dimethyl-6-(trifluoromethyl)-3,6-dihydro-2H-1,4-oxazin-3-yl)-5-fluoropyridin-2-yl)-3-chloro-5-(trifluoromethyl)picolinamide] here?
A: −59 (11) %

Q: And the “Aβ42 % change from baseline, Median” value (Aβ42; 10 mg, E4 heterozygotes)?
A: −64%

Q: What about the “Aβ42 % change from baseline, Mean (SD)” value (Aβ42; 10 mg, E4 non-carriers) of the same compound?
A: −58 (11) %

Q: What about the “Aβ42 % change from baseline, Median” value (Aβ42; 10 mg, E4 non-carriers) of the same compound?
A: −59%

Q: What about the “Aβ42 % change from baseline, Mean (SD)” value (Aβ42; 30 mg, E4 non-carriers) of the same compound?
A: −80 (6) %

Q: And the “Aβ42 % change from baseline, Median” value (Aβ42; 30 mg, E4 non-carriers)?
A: −82%

Q: What about the “Aβ42 % change from baseline, Mean (SD)” value (Aβ42; 90 mg, E4 heterozygotes) of the same compound?
A: −87 (2) %

Q: What about the “Aβ42 % change from baseline, Median” value (Aβ42; 90 mg, E4 heterozygotes) of the same compound?
A: −87%

Q: What about the “Aβ42 % change from baseline, Mean (SD)” value (Aβ42; 90 mg, E4 non-carriers) of the same compound?
A: −86 (5) %

Q: What about the “Aβ42 % change from baseline, Median” value (Aβ42; 90 mg, E4 non-carriers) of the same compound?
A: −87%

Q: What about the “Aβ42 % change from baseline, Mean (SD)” value (Aβ42; 300 mg, E4 heterozygotes (n 1)) of the same compound?
A: −89%

Q: And the “Aβ42 % change from baseline, Median” value (Aβ42; 300 mg, E4 heterozygotes (n 1))?
A: −89%

Q: And the “Aβ42 % change from baseline, Mean (SD)” value (Aβ42; 300 mg, E4 non-carriers)?
A: −92 (1) %

Q: What about the “Aβ42 % change from baseline, Median” value (Aβ42; 300 mg, E4 non-carriers) of the same compound?
A: −91%

Q: What about the “AUCbrain (AUC0-24 h)” value ([1]; C57BL/6, mouse, 8 umol/kg) of the same compound?
A: 11.61 µmol·h/kg

Q: What about the “AUCbrain (AUC0-24 h)” value ([1]; C57BL/6, mouse, 50 umol/kg) of the same compound?
A: 88.93 µmol·h/kg

Q: And the “reduction of blood exposure, last day vs beginning of experiment” value ([1]; C57BL/6, mouse, 8 weeks)?
A: around 35%

Q: And the “AUCblood (AUC0-24 h)” value ([1]; C57BL/6, mouse, 8 umol/kg)?
A: 3.49 µM·h

Q: And the “AUCblood (AUC0-24 h)” value ([1]; C57BL/6, mouse, 50 umol/kg)?
A: 18.53 µM·h

Q: What about the “rel. AUCdorsal skin” value ([1]; mouse) of the same compound?
A: 12.6

Q: What about the “rel. AUCventral skin” value ([1]; mouse) of the same compound?
A: 16.8

Q: And the “AUCdorsal skin (AUC0-24 h)” value ([1]; mouse, 8 umol/kg)?
A: 54.3 µmol·h/kg

Q: And the “AUCventral skin (AUC0-24 h)” value ([1]; mouse, 8 umol/kg)?
A: 78.29 µmol·h/kg

Q: And the “AUCdorsal skin (AUC0-24 h)” value ([1]; mouse, 50 umol/kg)?
A: 271.6 µmol·h/kg

Q: And the “AUCventral skin (AUC0-24 h)” value ([1]; mouse, 50 umol/kg)?
A: 308.7 µmol·h/kg

Q: What about the “body weight difference compared to vehicle” value [2] of the same compound?
A: No overall significant body weight difference

Q: What about the “Distal GFAP+ area” value (GFAP positive astrocytes; APP23, 0.03 g/kg food) of the same compound?
A: 12.16 ± 1.52

Q: What about the “Proximal GFAP+ area” value (GFAP positive astrocytes; APP23, 0.03 g/kg food) of the same compound?
A: 4.11 ± 0.86

Q: And the “Total GFAP+ area” value (GFAP positive astrocytes; APP23, 0.03 g/kg food)?
A: 18.56 ± 2.59

Q: And the “non-plaque associated GFAP+ area” value (GFAP positive astrocytes; APP23, 0.03 g/kg food)?
A: 16.27 ± 2.19

Q: And the “plaque-associated GFAP+ area” value (GFAP positive astrocytes; APP23, 0.03 g/kg food)?
A: 2.29 ± 0.47

Q: And the “Distal GFAP+ area, change vs vehicle” value (GFAP positive astrocytes; APP23, 0.03 g/kg vs vehicle)?
A: −8.9%

Q: What about the “Proximal GFAP+ area, change vs vehicle” value (GFAP positive astrocytes; APP23, 0.03 g/kg vs vehicle) of the same compound?
A: −28.0%

Q: And the “Total GFAP+ area, change vs vehicle” value (GFAP positive astrocytes; APP23, 0.03 g/kg vs vehicle)?
A: −16.9%

Q: And the “non-plaque associated GFAP+ area, change vs vehicle” value (GFAP positive astrocytes; APP23, 0.03 g/kg vs vehicle)?
A: −14.6%

Q: What about the “plaque-associated GFAP+ area, change vs vehicle” value (GFAP positive astrocytes; APP23, 0.03 g/kg vs vehicle) of the same compound?
A: −29.8%

Q: And the “Distal GFAP+ area” value (GFAP positive astrocytes; APP23, 0.3 g/kg food)?
A: 9.72 ± 1.65

Q: And the “Proximal GFAP+ area” value (GFAP positive astrocytes; APP23, 0.3 g/kg food)?
A: 1.91 ± 0.51

Q: What about the “Total GFAP+ area” value (GFAP positive astrocytes; APP23, 0.3 g/kg food) of the same compound?
A: 12.79 ± 2.33

Q: And the “non-plaque associated GFAP+ area” value (GFAP positive astrocytes; APP23, 0.3 g/kg food)?
A: 11.63 ± 2.06

Q: And the “plaque-associated GFAP+ area” value (GFAP positive astrocytes; APP23, 0.3 g/kg food)?
A: 1.16 ± 0.32

Q: And the “Distal GFAP+ area, change vs vehicle” value (GFAP positive astrocytes; APP23, 0.3 g/kg vs vehicle)?
A: −27.2%

Q: What about the “Proximal GFAP+ area, change vs vehicle” value (GFAP positive astrocytes; APP23, 0.3 g/kg vs vehicle) of the same compound?
A: −66.6%

Q: And the “Total GFAP+ area, change vs vehicle” value (GFAP positive astrocytes; APP23, 0.3 g/kg vs vehicle)?
A: −42.7%

Q: And the “non-plaque associated GFAP+ area, change vs vehicle” value (GFAP positive astrocytes; APP23, 0.3 g/kg vs vehicle)?
A: −39.0%

Q: What about the “plaque-associated GFAP+ area, change vs vehicle” value (GFAP positive astrocytes; APP23, 0.3 g/kg vs vehicle) of the same compound?
A: −64.3%
